Drawing on US11897851B2, “Heterocyclic GLP-1 agonists” (Gasherbrum Bio, Inc., priority 2021, dated 2024), this text covers EC50 for 26 compounds.

The target of this assay is T1, GLP-1 Receptor (Homo sapiens, UniProt P43220).
T1 construct: host or cells: HEK293/GLP1R/CRE-LUC (HEK293/CRE-Luc stably expressing the GLP-1 receptor)
In words: GLP-1R agonist cAMP stimulation assay (HEK293/GLP1R/CRE-LUC cells, Cisbio cAMP dynamic 2 kit).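 Note: compounds tested in half-log serial dilution, cAMP detected with cAMP-d2 and anti-cAMP cryptate antibody reagents after 1 h at room temperature.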 To be noted: HEK293/CRE-Luc cell line stably expressing the GLP-1 Receptor; 1000 cells/well; 30 min at 37° C.; 0.5 mM IBMX, 0.1% BSA; read-out: GLP1R cAMP Stimulation DR: EC50. The format is cell-based.

T1 sequence (P43220 24-463, species assumed): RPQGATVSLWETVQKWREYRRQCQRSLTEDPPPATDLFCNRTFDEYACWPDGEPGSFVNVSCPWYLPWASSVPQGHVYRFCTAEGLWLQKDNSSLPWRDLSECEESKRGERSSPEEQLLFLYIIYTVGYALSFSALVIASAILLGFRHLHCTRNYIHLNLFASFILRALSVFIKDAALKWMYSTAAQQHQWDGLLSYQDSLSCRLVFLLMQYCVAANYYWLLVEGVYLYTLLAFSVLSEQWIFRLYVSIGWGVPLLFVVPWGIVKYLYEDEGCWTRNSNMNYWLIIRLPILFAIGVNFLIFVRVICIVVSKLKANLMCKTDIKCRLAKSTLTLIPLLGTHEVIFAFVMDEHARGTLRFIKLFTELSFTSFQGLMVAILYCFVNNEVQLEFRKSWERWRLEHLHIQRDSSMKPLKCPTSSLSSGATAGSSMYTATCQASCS

One may read the EC50 as the midpoint of the concentration-response curve. Consider `O=C(O)/C(F)=C/c1cnc(CN2CCC(c3cccc(OCc4ccc(Cl)cc4F)n3)CC2)n1C[C@@H]1CCO1` [Compound 215a, (S,Z)-3-(2-((4-(6-((4-chloro-2-fluorobenzyl)oxy)pyridin-2-yl)piperidin-1-yl)methyl)-1-(oxetan-2-ylmethyl)-1H-imidazol-5-yl)-2-fluoroacrylic acid], for which the EC50 stood at 55 nM.

For the compound `COCC/C(=C\c1cnc(CN2CCC(c3cccc(OCc4ccc(Cl)cc4F)n3)CC2)n1C[C@@H]1CCO1)C(=O)O` [Compound 216a, (S,E)-2-((2-((4-(6-((4-chloro-2-fluorobenzyl)oxy)pyridin-2-yl)piperidin-1-yl)methyl)-1-(oxetan-2-ylmethyl)-1H-imidazol-5-yl)methylene)-4-methoxybutanoic acid], the EC50 was determined as 4.4 nM. The result for `C/C(=C\c1cnc(CN2CCC(c3cccc(OCc4ccc(Cl)cc4F)n3)CC2)n1C[C@@H]1CCO1)C(=O)O` [Compound 218a, (S,E)-3-(2-((4-(6-((4-chloro-2-fluorobenzyl)oxy)pyridin-2-yl)piperidin-1-yl)methyl)-1-(oxetan-2-ylmethyl)-1H-imidazol-5-yl)-2-methylacrylic acid] reads 1.4 nM. For the compound `CCn1cncc1Cn1c(/C=C(\C)C(=O)O)cnc1CN1CCC(c2cccc(OCc3ccc(Cl)cc3F)n2)CC1` [Compound 219, (E)-3-(2-((4-(6-((4-chloro-2-fluorobenzyl)oxy)pyridin-2-yl)piperidin-1-yl)methyl)-1-((1-ethyl-1H-imidazol-5-yl)methyl)-1H-imidazol-5-yl)-2-methylacrylic acid], the EC50 is 0.0069 nM. The result for `CCn1cncc1Cn1c(/C=C(\C)C(=O)O)cnc1CN1CCC(c2cccc(OCc3ccc(Cl)cn3)n2)CC1` [Compound 220, (E)-3-(2-((4-(6-((5-chloropyridin-2-yl)methoxy)pyridin-2-yl)piperidin-1-yl)methyl)-1-((1-ethyl-1H-imidazol-5-yl)methyl)-1H-imidazol-5-yl)-2-methylacrylic acid] reads 0.11 nM; that for `COCCn1c(/C(F)=C/C(=O)O)cnc1CN1CCC(c2cccc(OCc3ccc(Cl)cc3F)n2)CC1` [Compound 221, (Z)-3-(2-((4-(6-((4-chloro-2-fluorobenzyl)oxy)pyridin-2-yl)piperidin-1-yl)methyl)-1-(2-methoxyethyl)-1H-imidazol-5-yl)-3-fluoroacrylic acid], 0.56 nM. Regarding `O=C(O)/C=C/c1cn(Cc2ncco2)c(CN2CCC(c3cccc4c3OC[C@@H](c3ccc(Cl)cc3)O4)CC2)n1` [Compound 222a, (R,E)-3-(2-((4-(2-(4-chlorophenyl)-2,3-dihydrobenzo[b][1,4]dioxin-5-yl)piperidin-1-yl)methyl)-1-(oxazol-2-ylmethyl)-1H-imidazol-4-yl)acrylic acid], the EC50 amounted to 6.9 nM.

On to `COCCn1c(/C=C/C(=O)O)nnc1CN1CCC(c2cccc(OCc3ccc(Cl)cc3F)n2)CC1` [Compound 223, (E)-3-(5-((4-(6-((4-chloro-2-fluorobenzyl)oxy)pyridin-2-yl)piperidin-1-yl)methyl)-4-(2-methoxyethyl)-4H-1,2,4-triazol-3-yl)acrylic acid], for which the EC50 stood at 0.47 nM.

For the compound `COCCn1c(/C=C(\C)C(=O)O)nnc1CN1CCC(c2cccc(OCc3ccc(Cl)cc3F)n2)CC1` [Compound 224, (E)-3-(5-((4-(6-((4-chloro-2-fluorobenzyl)oxy)pyridin-2-yl)piperidin-1-yl)methyl)-4-(2-methoxyethyl)-4H-1,2,4-triazol-3-yl)-2-methylacrylic acid], the EC50 is 2.1 nM. Regarding `O=C(O)/C=C/c1nnc(CN2CCC(c3cccc(OCc4ccc(Cl)cc4F)n3)CC2)n1C[C@@H]1CCO1` [Compound 225a, (S,E)-3-(5-((4-(6-((4-chloro-2-fluorobenzyl)oxy)pyridin-2-yl)piperidin-1-yl)methyl)-4-(oxetan-2-ylmethyl)-4H-1,2,4-triazol-3-yl)acrylic acid], the EC50 came to 0.26 nM. As to `C/C(=C\c1nnc(CN2CCC(c3cccc(OCc4ccc(Cl)cc4F)n3)CC2)n1C[C@@H]1CCO1)C(=O)O` [Compound 226a, (S,E)-3-(5-((4-(6-((4-chloro-2-fluorobenzyl)oxy)pyridin-2-yl)piperidin-1-yl)methyl)-4-(oxetan-2-ylmethyl)-4H-1,2,4-triazol-3-yl)-2-methylacrylic acid], the EC50 was determined as 1.2 nM.

Take `C/C(=C\c1nnc(CN2CCC(c3cccc(OCc4ccc(Cl)cc4F)n3)CC2)n1CCS(C)(=O)=O)C(=O)O` [Compound 227, (E)-3-(5-((4-(6-((4-chloro-2-fluorobenzyl)oxy)pyridin-2-yl)piperidin-1-yl)methyl)-4-(2-(methylsulfonyl)ethyl)-4H-1,2,4-triazol-3-yl)-2-methylacrylic acid]: the EC50 was determined as 1.7 nM. `CCn1cncc1Cn1c(/C=C/C(=O)O)nnc1CN1CCC(c2cccc(OCc3ccc(Cl)cc3F)n2)CC1` [Compound 228, (E)-3-(5-((4-(6-((4-chloro-2-fluorobenzyl)oxy)pyridin-2-yl)piperidin-1-yl)methyl)-4-((1-ethyl-1H-imidazol-5-yl)methyl)-4H-1,2,4-triazol-3-yl)acrylic acid]: the EC50 worked out at 0.0048 nM.

Consider `O=C(O)/C=C/c1nnc(CN2CCC(c3cccc(OCc4ccc(Cl)cc4F)n3)CC2)n1CC1CCC1` [Compound 229, (E)-3-(5-((4-(6-((4-chloro-2-fluorobenzyl)oxy)pyridin-2-yl)piperidin-1-yl)methyl)-4-(cyclobutylmethyl)-4H-1,2,4-triazol-3-yl)acrylic acid], for which the EC50 is 2.7 nM.

For `O=C(O)/C=C/c1nnc(CN2CCC(c3cccc(OCc4ccc(Cl)cc4F)n3)CC2)n1CC(F)F` [Compound 230, (E)-3-(5-((4-(6-((4-chloro-2-fluorobenzyl)oxy)pyridin-2-yl)piperidin-1-yl)methyl)-4-(2,2-difluoroethyl)-4H-1,2,4-triazol-3-yl)acrylic acid], the EC50 amounted to 41 nM.

As to `O=C(O)/C=C/c1nnc(CN2CCC(c3cccc(OCc4ccc(Cl)cc4F)n3)CC2)n1CC1CCCO1` (centres unmarked) [Compound 231, (E)-3-(5-((4-(6-((4-chloro-2-fluorobenzyl)oxy)pyridin-2-yl)piperidin-1-yl)methyl)-4-((tetrahydrofuran-2-yl)methyl)-4H-1,2,4-triazol-3-yl)acrylic acid], the EC50 came out at 0.88 nM.

`O=C(O)/C=C/c1nnc(CN2CCC(c3cccc(OCc4ccc(Cl)cc4F)n3)CC2)n1CC1CCOC1` (centres unmarked) [Compound 232, (E)-3-(5-((4-(6-((4-chloro-2-fluorobenzyl)oxy)pyridin-2-yl)piperidin-1-yl)methyl)-4-((tetrahydrofuran-3-yl)methyl)-4H-1,2,4-triazol-3-yl)acrylic acid]: the EC50 is 1.2 nM. With `O=C(O)/C=C/c1nnc(CN2CCC(c3cccc(OCc4ccc(Cl)cc4F)n3)CC2)n1CC1CCOCC1` [Compound 233, (E)-3-[5-[[4-[6-[(4-chloro-2-fluoro-phenyl)methoxy]-2-pyridyl]-1-piperidyl]methyl]-4-(tetrahydropyran-4-ylmethyl)-1,2,4-triazol-3-yl]prop-2-enoic acid] the figure was 26 nM.

As to `CCn1cncc1Cn1c(/C=C/C(=O)O)nnc1CN1CCC(c2cccc3c2OC[C@@H](c2ccc(Cl)cc2)O3)CC1` [Compound 234a, (R,E)-3-(5-((4-(2-(4-chlorophenyl)-2,3-dihydrobenzo[b][1,4]dioxin-5-yl)piperidin-1-yl)methyl)-4-((1-ethyl-1H-imidazol-5-yl)methyl)-4H-1,2,4-triazol-3-yl)acrylic acid], the EC50 is 0.026 nM.

For the compound `COCCn1c(CN2CCC(c3cccc(OCc4ccc(Cl)cc4F)n3)CC2)nnc1C(C)=CC(=O)O` [Compound 235, 3-(5-((4-(6-((4-chloro-2-fluorobenzyl)oxy)pyridin-2-yl)piperidin-1-yl)methyl)-4-(2-methoxyethyl)-4H-1,2,4-triazol-3-yl)but-2-enoic acid], the EC50 came to 10 nM. The result for `CC(=CC(=O)O)c1nnc(CN2CCC(c3cccc(OCc4ccc(Cl)cc4F)n3)CC2)n1CC1CCC1` [Compound 236, 3-(5-((4-(6-((4-chloro-2-fluorobenzyl)oxy)pyridin-2-yl)piperidin-1-yl)methyl)-4-(cyclobutylmethyl)-4H-1,2,4-triazol-3-yl)but-2-enoic acid] reads 38 nM; that for `COCCn1c(CCC(=O)O)cnc1CN1CCC(c2cccc3c2OC(C)(c2ccc(Cl)cc2F)O3)CC1` (centres unmarked) [Compound 237, 3-(2-((4-(2-(4-chloro-2-fluorophenyl)-2-methylbenzo[d][1,3]dioxol-4-yl)piperidin-1-yl)methyl)-1-(2-methoxyethyl)-1H-imidazol-5-yl)propanoic acid], 0.29 nM; that for `CC1(c2ccc(Cl)cc2F)Oc2cccc(C3CCN(Cc4ncc(CCC(=O)O)n4CCOC(F)F)CC3)c2O1` (centres unmarked) [Compound 238, 3-(2-((4-(2-(4-chloro-2-fluorophenyl)-2-methylbenzo[d][1,3]dioxol-4-yl)piperidin-1-yl)methyl)-1-(2-(difluoromethoxy)ethyl)-1H-imidazol-5-yl)propanoic acid], 0.43 nM.

Consider `CC1(c2ccc(Cl)cc2F)Oc2cccc(C3CCN(Cc4ncc(CCC(=O)O)n4C[C@@H]4CCO4)CC3)c2O1` (stereo partly drawn) [Compound 239, 3-(2-((4-(2-(4-chloro-2-fluorophenyl)-2-methylbenzo[d][1,3]dioxol-4-yl)piperidin-1-yl)methyl)-1-(((S)-oxetan-2-yl)methyl)-1H-imidazol-5-yl)propanoic acid], for which the concentration giving a half-maximal response (EC50) worked out at 0.45 nM. With `CC1(c2ccc(Cl)cc2F)Oc2cccc(C3CCN(Cc4ncc(CCC(=O)O)n4CC4CCS4(=O)=O)CC3)c2O1` (centres unmarked) [Compound 240, 3-(2-((4-(2-(4-chloro-2-fluorophenyl)-2-methylbenzo[d][1,3]dioxol-4-yl)piperidin-1-yl)methyl)-1-((1,1-dioxidothietan-2-yl)methyl)-1H-imidazol-5-yl)propanoic acid] the figure was 0.38 nM; with `Cc1ncoc1Cn1c(CCC(=O)O)cnc1CN1CCC(c2cccc3c2OC(C)(c2ccc(Cl)cc2F)O3)CC1` (centres unmarked) [Compound 241, 3-(2-((4-(2-(4-chloro-2-fluorophenyl)-2-methylbenzo[d][1,3]dioxol-4-yl)piperidin-1-yl)methyl)-1-((4-methyloxazol-5-yl)methyl)-1H-imidazol-5-yl)propanoic acid], 0.21 nM.
